From ChEMBL document CHEMBL1743141, “Membrane transporters in drug development” (Nat Rev Drug Discov, 2010) come the findings set out here.

The structures appear in SMILES notation.

Common to all, as to assay type: ADME
In series [1] the target is T1, ATP-binding cassette sub-family C member 4 (Homo sapiens, UniProt O15439).
T1 sequence (O15439 whole entry): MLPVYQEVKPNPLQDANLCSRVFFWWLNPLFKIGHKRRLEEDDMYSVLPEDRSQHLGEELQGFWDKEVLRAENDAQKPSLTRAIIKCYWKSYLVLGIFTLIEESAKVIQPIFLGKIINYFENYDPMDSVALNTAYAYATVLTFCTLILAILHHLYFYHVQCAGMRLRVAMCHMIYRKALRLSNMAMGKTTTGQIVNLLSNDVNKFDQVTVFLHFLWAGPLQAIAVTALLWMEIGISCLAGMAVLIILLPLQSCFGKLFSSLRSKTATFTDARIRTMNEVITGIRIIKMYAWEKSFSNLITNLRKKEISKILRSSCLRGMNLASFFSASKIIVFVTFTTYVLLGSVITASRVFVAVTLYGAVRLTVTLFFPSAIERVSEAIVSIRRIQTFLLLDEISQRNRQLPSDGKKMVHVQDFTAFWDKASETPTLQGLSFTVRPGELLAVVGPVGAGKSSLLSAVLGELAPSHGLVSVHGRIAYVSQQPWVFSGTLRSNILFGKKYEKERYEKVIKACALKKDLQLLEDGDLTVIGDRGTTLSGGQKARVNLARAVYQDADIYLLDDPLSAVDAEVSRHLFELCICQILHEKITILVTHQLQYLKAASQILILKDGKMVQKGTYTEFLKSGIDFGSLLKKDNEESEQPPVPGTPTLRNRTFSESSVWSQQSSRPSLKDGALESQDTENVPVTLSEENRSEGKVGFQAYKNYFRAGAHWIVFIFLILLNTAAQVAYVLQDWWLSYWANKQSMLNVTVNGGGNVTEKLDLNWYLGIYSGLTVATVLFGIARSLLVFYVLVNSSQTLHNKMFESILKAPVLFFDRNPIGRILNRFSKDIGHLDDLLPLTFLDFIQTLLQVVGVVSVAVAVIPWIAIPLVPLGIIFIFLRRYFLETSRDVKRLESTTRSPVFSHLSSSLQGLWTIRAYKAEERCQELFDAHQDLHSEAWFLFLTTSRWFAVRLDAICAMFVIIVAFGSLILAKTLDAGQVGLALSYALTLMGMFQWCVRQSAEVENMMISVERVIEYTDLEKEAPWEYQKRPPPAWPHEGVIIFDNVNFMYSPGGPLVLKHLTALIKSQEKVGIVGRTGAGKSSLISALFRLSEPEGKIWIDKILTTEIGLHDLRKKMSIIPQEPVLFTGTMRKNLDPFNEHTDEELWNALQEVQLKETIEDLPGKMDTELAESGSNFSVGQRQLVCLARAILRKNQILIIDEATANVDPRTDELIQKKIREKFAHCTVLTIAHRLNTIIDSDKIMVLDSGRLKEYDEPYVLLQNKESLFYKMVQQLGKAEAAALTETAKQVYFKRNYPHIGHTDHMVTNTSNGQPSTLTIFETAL
Kind of series: Substrates of transporters of clinical importance in the absorption and disposition of drugs, MRP4.

The target in series [2] is T2, Solute carrier family 22 member 6 (Homo sapiens, UniProt Q4U2R8).
T2 sequence (Q4U2R8 whole entry): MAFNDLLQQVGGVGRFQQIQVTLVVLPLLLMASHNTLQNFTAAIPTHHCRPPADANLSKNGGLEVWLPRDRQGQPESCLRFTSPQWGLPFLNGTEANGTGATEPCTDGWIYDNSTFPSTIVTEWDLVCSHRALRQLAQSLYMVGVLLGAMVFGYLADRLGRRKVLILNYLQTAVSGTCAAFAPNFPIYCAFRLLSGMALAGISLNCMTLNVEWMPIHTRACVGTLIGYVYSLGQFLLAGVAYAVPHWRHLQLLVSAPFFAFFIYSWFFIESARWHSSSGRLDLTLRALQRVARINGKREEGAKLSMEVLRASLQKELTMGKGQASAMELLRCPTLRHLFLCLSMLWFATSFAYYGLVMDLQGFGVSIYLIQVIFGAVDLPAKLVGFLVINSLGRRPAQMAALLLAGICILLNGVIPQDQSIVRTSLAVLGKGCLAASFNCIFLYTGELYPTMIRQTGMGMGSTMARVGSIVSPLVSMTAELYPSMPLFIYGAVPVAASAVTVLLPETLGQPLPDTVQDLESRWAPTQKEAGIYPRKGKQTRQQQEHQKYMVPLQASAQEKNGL
As to the kind of experiment: Substrates of transporters of clinical importance in the absorption and disposition of drugs, OAT1.

Series [3] has as its target T3, Organic anion transporter 3 (Homo sapiens, UniProt Q8TCC7).
T3 sequence (Q8TCC7 whole entry): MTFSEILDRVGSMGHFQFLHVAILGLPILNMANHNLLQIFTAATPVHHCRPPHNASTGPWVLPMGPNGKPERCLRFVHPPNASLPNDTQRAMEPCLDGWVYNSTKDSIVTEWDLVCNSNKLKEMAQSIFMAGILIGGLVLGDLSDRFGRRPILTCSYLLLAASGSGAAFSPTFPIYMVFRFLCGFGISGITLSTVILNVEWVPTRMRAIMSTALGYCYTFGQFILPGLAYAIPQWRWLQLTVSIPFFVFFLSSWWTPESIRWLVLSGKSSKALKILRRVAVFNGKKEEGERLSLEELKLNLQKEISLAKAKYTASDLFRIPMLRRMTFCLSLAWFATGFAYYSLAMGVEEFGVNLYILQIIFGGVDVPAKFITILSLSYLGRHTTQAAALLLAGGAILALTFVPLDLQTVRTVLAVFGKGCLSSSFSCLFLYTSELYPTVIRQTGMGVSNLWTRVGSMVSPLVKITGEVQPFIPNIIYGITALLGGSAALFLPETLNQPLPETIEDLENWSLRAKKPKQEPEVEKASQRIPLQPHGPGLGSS
As to the kind of experiment: Substrates of transporters of clinical importance in the absorption and disposition of drugs, OAT3.

Series [4] has as its target T4, Solute carrier organic anion transporter family member 2B1 (Homo sapiens, UniProt O94956).
T4 sequence (O94956 whole entry): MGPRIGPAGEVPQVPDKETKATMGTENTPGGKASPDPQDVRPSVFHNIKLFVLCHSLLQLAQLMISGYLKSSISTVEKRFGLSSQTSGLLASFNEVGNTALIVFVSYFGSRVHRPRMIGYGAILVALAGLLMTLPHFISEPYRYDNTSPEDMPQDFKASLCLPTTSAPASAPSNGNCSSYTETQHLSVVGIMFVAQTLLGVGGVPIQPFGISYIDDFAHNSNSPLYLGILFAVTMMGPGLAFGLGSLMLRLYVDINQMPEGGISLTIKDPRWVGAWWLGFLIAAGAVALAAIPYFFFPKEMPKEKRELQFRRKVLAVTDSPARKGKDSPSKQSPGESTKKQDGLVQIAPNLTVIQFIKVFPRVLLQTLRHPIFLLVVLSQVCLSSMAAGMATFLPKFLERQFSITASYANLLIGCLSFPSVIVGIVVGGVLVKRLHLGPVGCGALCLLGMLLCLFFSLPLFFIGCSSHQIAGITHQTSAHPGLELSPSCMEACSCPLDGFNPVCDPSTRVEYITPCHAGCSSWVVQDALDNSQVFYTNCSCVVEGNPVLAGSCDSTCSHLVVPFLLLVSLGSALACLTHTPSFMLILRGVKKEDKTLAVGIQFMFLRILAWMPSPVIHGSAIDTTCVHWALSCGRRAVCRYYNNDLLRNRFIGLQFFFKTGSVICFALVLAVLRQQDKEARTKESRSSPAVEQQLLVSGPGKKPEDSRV
Kind of series: Substrates of transporters of clinical importance in the absorption and disposition of drugs, OATP2B1.

Series [5] addresses T5, Solute carrier organic anion transporter family member 1B3 (Homo sapiens, UniProt Q9NPD5).
T5 sequence (Q9NPD5 whole entry): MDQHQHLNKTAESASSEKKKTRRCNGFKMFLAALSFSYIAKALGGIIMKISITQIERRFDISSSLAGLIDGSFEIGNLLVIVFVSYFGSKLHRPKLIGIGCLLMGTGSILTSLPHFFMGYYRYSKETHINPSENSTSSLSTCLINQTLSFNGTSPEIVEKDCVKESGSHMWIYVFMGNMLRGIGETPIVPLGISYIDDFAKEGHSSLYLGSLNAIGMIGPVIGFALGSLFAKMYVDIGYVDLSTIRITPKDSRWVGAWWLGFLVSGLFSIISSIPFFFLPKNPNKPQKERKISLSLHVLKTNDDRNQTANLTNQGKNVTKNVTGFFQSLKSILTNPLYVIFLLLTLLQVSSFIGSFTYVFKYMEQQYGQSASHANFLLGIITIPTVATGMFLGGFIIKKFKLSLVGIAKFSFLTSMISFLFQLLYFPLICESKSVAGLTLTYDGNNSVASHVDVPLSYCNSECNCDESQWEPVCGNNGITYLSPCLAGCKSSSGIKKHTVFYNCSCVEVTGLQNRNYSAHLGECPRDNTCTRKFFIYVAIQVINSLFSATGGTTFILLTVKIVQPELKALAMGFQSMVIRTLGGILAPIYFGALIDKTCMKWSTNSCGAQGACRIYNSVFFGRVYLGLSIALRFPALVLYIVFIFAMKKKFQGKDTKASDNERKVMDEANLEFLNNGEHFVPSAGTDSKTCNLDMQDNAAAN
As to the kind of experiment: Substrates of transporters of clinical importance in the absorption and disposition of drugs, OATP1B3.

The target of series [6] is T6, Solute carrier organic anion transporter family member 1B1 (Homo sapiens, UniProt Q9Y6L6).
T6 sequence (Q9Y6L6 whole entry): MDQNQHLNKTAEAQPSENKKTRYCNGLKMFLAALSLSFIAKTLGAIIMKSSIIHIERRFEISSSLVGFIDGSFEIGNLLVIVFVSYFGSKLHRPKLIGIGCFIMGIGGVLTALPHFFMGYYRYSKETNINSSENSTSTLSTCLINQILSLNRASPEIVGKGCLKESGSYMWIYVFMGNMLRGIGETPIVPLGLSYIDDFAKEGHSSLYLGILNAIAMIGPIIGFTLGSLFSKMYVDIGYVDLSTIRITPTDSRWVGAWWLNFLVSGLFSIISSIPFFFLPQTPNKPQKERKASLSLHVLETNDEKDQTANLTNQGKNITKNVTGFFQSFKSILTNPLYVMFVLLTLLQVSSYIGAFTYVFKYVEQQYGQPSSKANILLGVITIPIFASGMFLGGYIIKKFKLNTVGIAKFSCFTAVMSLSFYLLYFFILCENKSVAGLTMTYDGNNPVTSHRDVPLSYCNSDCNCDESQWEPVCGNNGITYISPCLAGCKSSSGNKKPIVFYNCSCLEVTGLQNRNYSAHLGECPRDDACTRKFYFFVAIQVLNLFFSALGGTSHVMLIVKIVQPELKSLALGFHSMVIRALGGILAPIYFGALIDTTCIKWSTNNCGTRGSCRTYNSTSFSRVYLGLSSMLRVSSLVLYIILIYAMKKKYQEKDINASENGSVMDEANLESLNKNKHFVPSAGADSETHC
As to the kind of experiment: Substrates of transporters of clinical importance in the absorption and disposition of drugs, OATP1B1.

For series [7], the target named is ATP-binding cassette sub-family C member 2 (Homo sapiens, UniProt Q92887). Kind of series: Substrates of transporters of clinical importance in the absorption and disposition of drugs, MRP2.
Sequence of ATP-binding cassette sub-family C member 2 (Q92887 whole entry): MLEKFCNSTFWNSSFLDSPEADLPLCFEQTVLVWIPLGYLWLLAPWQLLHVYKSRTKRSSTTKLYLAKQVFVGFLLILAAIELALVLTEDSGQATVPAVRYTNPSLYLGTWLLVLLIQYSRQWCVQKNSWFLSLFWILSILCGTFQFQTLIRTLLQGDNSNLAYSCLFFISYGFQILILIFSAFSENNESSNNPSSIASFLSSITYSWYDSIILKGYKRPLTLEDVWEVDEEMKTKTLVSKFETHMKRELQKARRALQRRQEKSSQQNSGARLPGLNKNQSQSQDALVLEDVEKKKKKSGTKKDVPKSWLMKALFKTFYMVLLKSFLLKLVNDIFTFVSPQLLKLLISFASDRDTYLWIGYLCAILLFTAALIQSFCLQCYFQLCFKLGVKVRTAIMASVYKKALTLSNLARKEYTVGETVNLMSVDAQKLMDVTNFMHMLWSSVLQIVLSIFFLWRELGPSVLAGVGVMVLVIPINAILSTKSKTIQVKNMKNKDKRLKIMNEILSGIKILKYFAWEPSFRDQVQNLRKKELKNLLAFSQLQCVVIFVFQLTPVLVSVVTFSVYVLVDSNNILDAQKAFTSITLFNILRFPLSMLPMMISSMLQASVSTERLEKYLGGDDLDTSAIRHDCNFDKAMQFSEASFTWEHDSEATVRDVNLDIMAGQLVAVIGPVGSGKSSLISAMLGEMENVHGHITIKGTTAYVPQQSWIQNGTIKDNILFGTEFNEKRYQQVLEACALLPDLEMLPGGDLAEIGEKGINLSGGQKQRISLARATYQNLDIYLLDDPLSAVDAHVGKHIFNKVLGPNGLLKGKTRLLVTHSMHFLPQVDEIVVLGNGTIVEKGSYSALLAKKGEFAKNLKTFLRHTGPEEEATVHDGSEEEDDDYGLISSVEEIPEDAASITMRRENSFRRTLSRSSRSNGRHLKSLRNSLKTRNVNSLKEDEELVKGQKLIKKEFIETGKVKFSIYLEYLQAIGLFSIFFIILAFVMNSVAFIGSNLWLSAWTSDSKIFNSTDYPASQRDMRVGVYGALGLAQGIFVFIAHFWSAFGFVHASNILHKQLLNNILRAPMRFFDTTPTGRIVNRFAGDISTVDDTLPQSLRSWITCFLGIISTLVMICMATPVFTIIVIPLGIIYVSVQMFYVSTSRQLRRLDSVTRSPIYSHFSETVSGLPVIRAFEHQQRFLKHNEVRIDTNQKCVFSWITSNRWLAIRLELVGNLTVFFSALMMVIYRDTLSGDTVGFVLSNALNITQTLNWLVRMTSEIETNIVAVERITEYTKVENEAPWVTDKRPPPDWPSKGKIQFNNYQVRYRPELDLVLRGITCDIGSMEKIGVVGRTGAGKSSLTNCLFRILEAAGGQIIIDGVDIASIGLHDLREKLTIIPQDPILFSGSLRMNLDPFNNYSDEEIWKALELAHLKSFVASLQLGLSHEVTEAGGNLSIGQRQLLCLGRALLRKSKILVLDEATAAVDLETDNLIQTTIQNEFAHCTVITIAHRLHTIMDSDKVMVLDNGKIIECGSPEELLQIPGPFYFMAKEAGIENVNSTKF

As to `Nc1ncnc2c1ncn2CCOCP(=O)(O)O` [ADEFOVIR], the Activity result in series [1] and in series [2] was “transporter substrate” in each case.

Take `CCCCNc1cc(C(=O)O)cc(S(N)(=O)=O)c1Oc1ccccc1` [BUMETANIDE]: the Activity entry in series [3] is listed as “transporter substrate”. On the same count and under the same terms, as for `N[C@@H](C(=O)N[C@@H]1C(=O)N2C(C(=O)O)=C(Cl)CS[C@H]12)c1ccccc1` [CEFACLOR ANHYDROUS], the entry is “transporter substrate”; as for `CO/N=C(\C(=O)N[C@@H]1C(=O)N2C(C(=O)O)=CCS[C@H]12)c1csc(N)n1` [CEFTIZOXIME], “transporter substrate”. Regarding `Nc1ccn(C[C@@H](CO)OCP(=O)(O)O)c(=O)n1.O.O` [CIDOFOVIR], the Activity entry in series [2] is “transporter substrate”. Take `NS(=O)(=O)c1cc(C(=O)O)c(NCc2ccco2)cc1Cl` [FUROSEMIDE]: the Activity entry in series [1] and in series [3] was “transporter substrate” throughout. As for `COc1ccc(Cl)cc1C(=O)NCCc1ccc(S(=O)(=O)NC(=O)NC2CCCCC2)cc1` [GLYBURIDE], the Activity entry in series [4] is listed as “transporter substrate”. Turning to `CCCc1nc(C(C)(C)O)c(C(=O)O)n1Cc1ccc(-c2ccccc2-c2nnn[nH]2)cc1` [OLMESARTAN], the Activity entry in series [5], in series [6] and in series [7] was “transporter substrate” throughout.

With `C[C@H](Cn1cnc2c(N)ncnc21)OCP(=O)(O)O` [TENOFOVIR ANHYDROUS], the Activity entry in series [1] and in series [2] was “transporter substrate” each time. `Nc1ccn([C@H]2CC[C@@H](CO)O2)c(=O)n1` [ZALCITABINE]: the Activity result in series [2] is given as “transporter substrate”. Same read-out and setting: as for `Cc1cn([C@H]2C[C@H](N=[N+]=[N-])[C@@H](CO)O2)c(=O)[nH]c1=O` [ZIDOVUDINE], the entry is “transporter substrate”.
